Entries after “also recorded” stand apart in the source; their conditions may differ.
Assays:
3T3-F442A cells [1] = assay: Triacylglyceride accumulation in differentiating 3T3-F442A pre-adipocytes; assay type: cell-based, murine; details: for Triacylglycerides (μg/mg protein): 10 μM from confluency, control (no treatment) 0.16; for Triacylglycerides (μg/mg protein) / inhibition of cell differentiation (in words) / concentration of TAGs in the adipocytes, % relative to the control: 7 days; for inhibition of cell differentiation (in words): 10 μM; for concentration of TAGs in the adipocytes, % relative to the control: control 100% (FIG. 2)
Protocol: The pre-adipocyte lines 3T3-F442A (commercial line) and BFC 115 (from Claude Forest INSERM, St. Pères Paris V) are cultured until confluency in Dulbecco's modified Eagle medium (DMEM) (Gibco) in the presence of 5% of newborn calf serum and 5% of fetal calf serum (Gibco).
From confluency, the cells are cultured in a differentiating medium (DMEM with 10% of fetal calf serum and 20 nM of insulin) in the presence or absence of the metabolites to be tested.
The medium is renewed every two or three days.
The differentiation of the cells is evaluated either by morphological criteria (very rounded cells having accumulated large lipid vacuoles) or by measuring the average amount of triglycerides per cell (ratio of the amount of triglyceride per dish to the amount of protein per dish). Under standard culture conditions, in 8 days, 90% of the pre-adipocytes have differentiated to adipocytes.
The cells are washed with PBS phosphate buffer (Sigma), recovered from the bottom of the Petri dish by scraping with a spatula, fragmented by ultrasound (2 seconds) and then centrifuged at 10000 g for 20 minutes.
The centrifugation supernatant is removed for triacylglyceride (TAG) analysis.
To determine the average amount of triglycerides per cell at the end of the abovementioned experiments, an automated enzymatic colorimetric test (Roche method) which is based on the studies of Wahlefeld (Wahlefeld and Bergmeyer (eds). Methods of Enzymatic Analysis. 2 second edition. New York Academic Press Inc. 1974: 1831) was used as assaying method.
The 3T3-F442A pre-adipocyte cells were treated from confluency with 12(R)-HETE (10 μM), 12(S)-HETE (10 μM), 11,12-EET (10 μM) and with Δ 15-deoxy prostaglandin J2 (10 μM, Δ 15-deoxyPGJ2) in the presence or absence of 10 μM of 12(R)-HETE. The cell differentiation was evaluated after 7 days by measuring, as indicated above, the amount of triacylglycerides accumulated per mg of protein.
To do this, 3T3-F442A fibroblasts, or pre-adipocyte cells, were treated from confluency with various concentrations of 12(R)-HETE. The cell differentiation was evaluated after 7 days by measuring the amount of triacylglycerides (TAGs) accumulated per mg of protein (prot).

[2] = tested on: pre-adipocyte fibroblasts; details: cited from earlier work
[3] = tested on: BFC-115 pre-adipocyte cells; assay: Triacylglyceride accumulation in differentiating BFC-115 pre-adipocytes; assay type: cell-based, murine; details: 7 days; for Amount of TAG in μg/mg of protein: control 0.45; for inhibition of the differentiation of the pre-adipocytes: 10 μM
Protocol: The pre-adipocyte lines 3T3-F442A (commercial line) and BFC 115 (from Claude Forest INSERM, St. Pères Paris V) are cultured until confluency in Dulbecco's modified Eagle medium (DMEM) (Gibco) in the presence of 5% of newborn calf serum and 5% of fetal calf serum (Gibco). From confluency, the cells are cultured in a differentiating medium (DMEM with 10% of fetal calf serum and 20 nM of insulin) in the presence or absence of the metabolites to be tested. The medium is renewed every two or three days. The differentiation of the cells is evaluated either by morphological criteria (very rounded cells having accumulated large lipid vacuoles) or by measuring the average amount of triglycerides per cell (ratio of the amount of triglyceride per dish to the amount of protein per dish). Under standard culture conditions, in 8 days, 90% of the pre-adipocytes have differentiated to adipocytes. […] The BFC-115 pre-adipocyte cells were treated from confluency with 12(R)-HETE (10 μM), 12(S)-HETE (10 μM), 11,12-EET (10 μM) and with arachidonic acid AA (100 μM). The cell differentiation was evaluated after 7 days by measuring the amount of triacylglycerides accumulated per mg of protein.

[4] = tested on: cells from human adipose tissue; assay: Triglyceride accumulation in cells from human adipose tissue; assay type: cell-based; details: 10 μM, pro-differentiating medium, three experiments
Source text: In addition, cells originating from human fat tissues subsequent to surgical interventions requiring their removal were used. The removed tissues are collected on a bed of ice and immediately treated in the laboratory. The cell culture consists of a mixture of pre-adipocyte cells and adipocyte cells already differentiated.

3T3-F442A cells [5] = assay: Direct morphological examination of differentiation of fibroblasts to adipocytes; assay type: cell-based, murine
Protocol: The differentiation of the cells is evaluated either by morphological criteria (very rounded cells having accumulated large lipid vacuoles) or by measuring the average amount of triglycerides per cell (ratio of the amount of triglyceride per dish to the amount of protein per dish). Under standard culture conditions, in 8 days, 90% of the pre-adipocytes have differentiated to adipocytes. To show by direct morphological examination the differentiation of the fibroblasts to adipocytes in the presence or absence of the metabolites 12-HETE and/or 11,12-EET, the following procedure was carried out. The 3T3-F442A cells are treated, from confluency, with these metabolites. The treatment was renewed every 2 or 3 days throughout the entire differentiation process. The level of differentiation of the cells was evaluated by observation under a photon microscope with a 200 times magnification (see the photos shown in figures FIG. 1A, FIG. 1A1, FIG. 1B and FIG. 1B1).

[6] = tested on: differentiated 3T3-F442A cells; assay: Residual level of metabolite in culture medium of differentiated cells (LC-MS); assay type: in vitro ADME, murine; details: 10 μM
Protocol: It was also determined that the residual level of 12(R)-HETE, present at a concentration of 10 μM in the culture medium of the differentiated 3T3-F442A cells, is respectively 85% and 2.3% after 6 h and 18 h of incubation.
The residual amounts of 12(R)-HETE were analyzed by LC-MS.

[7] = Cellular toxicity markers after 8 days of treatment; assay type: cell-based; details: 30 μM
Protocol: The possible toxicity of the metabolites selected in accordance with the invention was also studied.
For this purpose, several cellular toxicity markers were measured after 8 days of treatment, namely
the LDH (lactate dehydrogenase) activity in the culture medium, a control for membrane permeabilization,
fragmentation of the nucleus by “Hoechst” staining, which is a marker for apoptosis and which is described in Leukemia, 15, 1572-81. Plenchette, S., Moutet M., Benguella M., N'Gondara J. P., Guigner F., Coffe C., Corcos L., Bettaieb A. and Solary E. (2001).

Row | Structure (SMILES) | Triacylglycerides (μg/mg protein) (3T3-F442A cells [1]) | inhibition of cell differentiation (in words) (3T3-F442A cells [1]) | Amount of TAG in μg/mg of protein ([3]; 10 μM from confluency) | inhibition of the differentiation of the pre-adipocytes [3] | inhibition of the accumulation of triglycerides [4] [%] | also measured
1 | CCCCC/C=C/C=C1/C(=O)C=C[C@@H]1C/C=C\CCCC(=O)O [15-deoxyPGJ2, 15-deoxy-Δ^12,14-prostaglandin J2, reference compound] | 0.52 |  |  |  |  | concentrations at which differentiation is accelerated [2]: 10^−5 to 10^−6 M
2 | CCCCC/C=C\CC1OC1C/C=C\C/C=C\CCCC(=O)O (stereo not drawn) [11,12-EET, 11,12-epoxyeicosatrienoic acid] | 0.08 | greatly inhibit the cell differentiation | =0.22 μg/mg of protein | approximately 40% | 50 | 
3 | CCCCC/C=C\C[C@@H](O)/C=C/C=C\C/C=C\CCCC(=O)O [12(R)-HETE, 12-hydroxyeicosatetraenoic acid] | 0.04 | greatly inhibit the cell differentiation; also recorded: greater than that of 12(S)-HETE | =0.17 μg/mg of protein | approximately 40% | 50 | concentration of TAGs in the adipocytes, % relative to the control (3T3-F442A cells [1]; 5 μM): approximately 85%; inhibition of the differentiation induced by Δ 15-deoxyprostaglandin J2 (3T3-F442A cells [1]; 10 μM 12(R)-HETE with 10 μM 15-deoxyPGJ2, 7 days): approximately 40%; concentration of TAGs in the adipocytes, % relative to the control (3T3-F442A cells [1]; 30 μM): approximately 25%; cell morphology under photon microscope (3T3-F442A cells [5]; 10 μM, 7 days, with or without 100 μM arachidonic acid (FIG. 1A1, 1B1)): spindle-shaped with very few lipid globules; penetration into the cells (conclusion from residual level) [6]: clearly penetrates into the cells; residual level in the culture medium ([6]; after 6 h of incubation): 85%; residual level in the culture medium ([6]; after 18 h of incubation): 2.3%; cellular toxicity markers (number of cells, cell morphology, LDH activity in medium, fragmentation of the nucleus by Hoechst staining) [7]: None of these markers responds positively
4 | CCCCC/C=C\C[C@@H](O)/C=C/C=C\C/C=C\CCCC(=O)O [12(S)-HETE, 12-hydroxyeicosatetraenoic acid] | 0.07 | greatly inhibit the cell differentiation | =0.28 μg/mg of protein | approximately 40% |  | 
5 | CCCCC/C=C\C/C=C\C/C=C\C/C=C\CCCC(=O)O [AA, arachidonic acid, reference compound] |  |  |  |  |  | Amount of TAG in μg/mg of protein ([3]; 100 μM from confluency): =0.55 μg/mg of protein; effect on differentiation (in words) ([3]; 100 μM): clearly promotes the differentiation; cell morphology under photon microscope (3T3-F442A cells [5]; 100 μM from confluency (FIG. 1B)): increases the amount of cells differentiated into adipocytes

Reference: US20040204487A1, “Novel medicinal product” (priority 2002, published 2004)
